# Experimental data: patent US20130112197A1, “OPERATING METHOD FOR AN AEROSOL DELIVERY DEVICE AND AEROSOL DELIVERY DEVICE” (PARI Pharma GmbH, priority 2010, published 2013)
# Assay: clinical trial: nasal and paranasal aerosol deposition by gamma camera imaging
# Format: in vivo, human
# Source text: The method of the clinical trial was: Sinus air ventilation, nasal and paranasal aerosol deposition as well as nasal clearance of aerosols delivered by different pulsating airflows, such as a combined mode in comparison to intermittent mode. This was studied in 12 healthy volunteers using gamma camera imaging with 81 mKr gas and 99 mTc-DTPA aerosol. Masking techniques were used to visualize and quantify nasal and sinus aerosol deposition and retention.
smiles,measurement,setting,value
O=C([O-])CN(CCN(CC(=O)[O-])CC(=O)[O-])CCN(CC(=O)[O-])CC(=O)[O-].[99Tc+4] [99 mTc-DTPA],total sinus deposition in % of the deposited activity,"12 healthy volunteers, maxillary and sphenoid sinuses, pulsating airflows",up to 24%
same,total sinus deposition in % of the deposited activity,"combined mode, proband 1, post FESS volunteer",14%
same,total sinus deposition in % of the deposited activity,"combined mode, proband 2, normal volunteer",6%
same,total sinus deposition in % of the deposited activity,"intermittent mode, proband 1, post FESS volunteer",24%
same,total sinus deposition in % of the deposited activity,"intermittent mode, proband 2, normal volunteer",0%
